# Measurements reported in patent publication US6191115A, “C-terminus modified heptapeptide LHRH analogs” (Abbott Laboratories, priority 1999, dated 2001).
# Starred links: 1 amine or outer side, 2 acyl side, 3 side chain; linkers in the order of their positions; H or OH if unused. Non-standard residues stand in square brackets, D forms with d. Residues, ends and D or L forms follow the SMILES beside them. *: point of attachment. NH(2-pyrrolidin-1-ylethyl) = C1CCN(CCN*)C1; NHCH2CH2(piperidin-1-yl) = C1CCN(CCN*)CC1; dPhe(4-Cl) = N[C@H](Cc1ccc(Cl)cc1)C(=O)O; NH(2-(2-pyridyl)ethyl) = c1ccc(CCN*)nc1; NH(2-morpholinoethyl) = C(CN1CCOCC1)N*; d2Nal = N[C@H](Cc1ccc2ccccc2c1)C(=O)O; NMeY = CN[C@@H](Cc1ccc(O)cc1)C(=O)O; Ethylenediamine = C(CN[*:2])N[*:1]; d3Pal = N[C@H](Cc1cccnc1)C(=O)O; NHPhenethyl = c1ccc(CCN*)cc1; Nicotinoyl = O=C(c1cccnc1)*; NH(CH2)5NH2 = NCCCCCN*; NH(CH2)4NH2 = NCCCCN*; NH(CH2)3NH2 = NCCCN*; X12 = N=C(N)NCCCCCN*; X1 = CC1CCCCN1CCCN*; X11 = CC(C)NCCCCCN*; X3 = O=C1CCCN1CCCN*; X7 = CN1CCCC1CCN*; X8 = Cn1cccc1CCN*; X2 = N=C(N)NCCN*
# Biological target: T1, LH release from rat pituitary cells (Rattus norvegicus, UniProt P30969)
# T1 sequence (P30969 1-327): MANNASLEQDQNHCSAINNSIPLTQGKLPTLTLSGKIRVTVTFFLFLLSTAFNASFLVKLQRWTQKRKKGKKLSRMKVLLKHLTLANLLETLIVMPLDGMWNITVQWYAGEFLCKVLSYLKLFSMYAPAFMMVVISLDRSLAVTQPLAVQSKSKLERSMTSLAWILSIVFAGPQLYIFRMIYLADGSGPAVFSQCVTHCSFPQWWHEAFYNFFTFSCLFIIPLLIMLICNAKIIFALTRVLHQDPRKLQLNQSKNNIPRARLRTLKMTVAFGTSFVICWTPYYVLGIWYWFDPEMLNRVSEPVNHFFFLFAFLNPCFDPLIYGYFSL
# Test: in vitro inhibition of LH release from rat pituitary cells (pA2)
# Format: cell-based
# Conditions: pA2 = negative logarithm of antagonist concentration required to shift the response curve of the agonist leuprolide to two-fold higher concentration
# Description: Representative compounds of the present invention were evaluated in vitro for inhibition of LH release from rat pituitary cells (pA2). Methods for the assay procedures arc described by F. Haviv, et al. J. Med. Chem., 32:2340-2344 (1989). Values of pA2 are the negative logarithms of the concentration of the particular antagonist test compound required to shift the response curve produced by the agonist leuprolide to two-fold higher concentration. Typically values of 7.0 or greater are indicative of good LHRH antagonist potency, with values of 8.0 or greater being preferred. Leuprolide LHRH agonist, disclosed and claimed in U.S. Pat. No. 4,005,063, has the structure 5-oxo-Pro^1 -His^2 -Trp^3 -Ser^4 -Tyr^5 -D-Leu^6 -Leu^7 -Arg^8 -Pro^9 -NHEt.
row,SMILES,LHRH antagonist potency (pA2)
1,"CC(=O)N[C@H](Cc1ccc2ccccc2c1)C(=O)N[C@H](Cc1ccc(Cl)cc1)C(=O)N[C@H](Cc1cccnc1)C(=O)N[C@@H](CO)C(=O)N(C)[C@@H](Cc1ccc(O)cc1)C(=O)N[C@H](CCCCNC(=O)c1cccnc1)C(=O)N[C@@H](CC(C)C)C(=O)NCCN1CCCC1 [Example 3, NAcD2Nal-D4ClPhe-D3Pal-Ser-NMeTyr-DLys(Nic)-Leu-NH--(CH2)2 -(1-pyrrolidine)] (Ac-[d2Nal][dPhe(4-Cl)][d3Pal]S[NMeY][dK](Nicotinoyl)L-{NH(2-pyrrolidin-1-ylethyl)})",11.27
2,"CC(=O)N[C@H](Cc1ccc2ccccc2c1)C(=O)N[C@H](Cc1ccc(Cl)cc1)C(=O)N[C@H](Cc1cccnc1)C(=O)N[C@@H](CO)C(=O)N(C)[C@@H](Cc1ccc(O)cc1)C(=O)N[C@H](CCCCNC(=O)c1cccnc1)C(=O)N[C@@H](CC(C)C)C(=O)NCCC1CCCN1C (stereo partly drawn) [Example 30, NAcD2Nal-D4ClPhe-D3Pal-Ser-NMeTyr-DLys(Nic)-Leu-NH--CH2 --CH2 -[2-(1-methyl)pyrrolidine]] (Ac-[d2Nal][dPhe(4-Cl)][d3Pal]S[NMeY][dK](Nicotinoyl)L-X7)",9.80
3,"CC(=O)N[C@H](Cc1ccc2ccccc2c1)C(=O)N[C@H](Cc1ccc(Cl)cc1)C(=O)N[C@H](Cc1cccnc1)C(=O)N[C@@H](CO)C(=O)N(C)[C@@H](Cc1ccc(O)cc1)C(=O)N[C@H](CCCCNC(=O)c1cccnc1)C(=O)N[C@@H](CC(C)C)C(=O)NCCNC(=N)N [Example 16, NAcD2Nal-D4ClPhe-D3Pal-Ser-NMeTyr-DLys(Nic)-Leu-NH--(CH2)2 NH(C=NH)NH2] (Ac-[d2Nal][dPhe(4-Cl)][d3Pal]S[NMeY][dK](Nicotinoyl)L-X2)",8.89
4,"CC(=O)N[C@H](Cc1ccc2ccccc2c1)C(=O)N[C@H](Cc1ccc(Cl)cc1)C(=O)N[C@H](Cc1cccnc1)C(=O)N[C@@H](CO)C(=O)N(C)[C@@H](Cc1ccc(O)cc1)C(=O)N[C@H](CCCCNC(=O)c1cccnc1)C(=O)N[C@@H](CC(C)C)C(=O)NCCN1CCCCC1 [Example 26, NAcD2Nal-D4ClPhe-D3Pal-Ser-NMeTyr-DLys(Nic)-Leu-NH--CH2 --CH2 -(1-piperidine)] (Ac-[d2Nal][dPhe(4-Cl)][d3Pal]S[NMeY][dK](Nicotinoyl)L-{NHCH2CH2(piperidin-1-yl)})",9.30
5,"CC(=O)N[C@H](Cc1ccc2ccccc2c1)C(=O)N[C@H](Cc1ccc(Cl)cc1)C(=O)N[C@H](Cc1cccnc1)C(=O)N[C@@H](CO)C(=O)N(C)[C@@H](Cc1ccc(O)cc1)C(=O)N[C@H](CCCCNC(=O)c1cccnc1)C(=O)N[C@@H](CC(C)C)C(=O)NCCc1ccccn1 [Example 28, NAcD2Nal-D4ClPhe-D3Pal-Ser-NMeTyr-DLys(Nic)-Leu-NH--CH2 --CH2 -(2-pyridine)] (Ac-[d2Nal][dPhe(4-Cl)][d3Pal]S[NMeY][dK](Nicotinoyl)L-{NH(2-(2-pyridyl)ethyl)})",8.10
6,"CC(=O)N[C@H](Cc1ccc2ccccc2c1)C(=O)N[C@H](Cc1ccc(Cl)cc1)C(=O)N[C@H](Cc1cccnc1)C(=O)N[C@@H](CO)C(=O)N(C)[C@@H](Cc1ccc(O)cc1)C(=O)N[C@H](CCCCNC(=O)c1cccnc1)C(=O)N[C@@H](CC(C)C)C(=O)NCCCN1CCCCC1C (stereo partly drawn) [Example 32, NAcD2Nal-D4ClPhe-D3Pal-Ser-NMeTyr-DLys(Nic)-Leu-NH--CH2 CH2 CH2 -[1-(2-methyl)piperidine]] (Ac-[d2Nal][dPhe(4-Cl)][d3Pal]S[NMeY][dK](Nicotinoyl)L-X1)",9.07
7,"CC(=O)N[C@H](Cc1ccc2ccccc2c1)C(=O)N[C@H](Cc1ccc(Cl)cc1)C(=O)N[C@H](Cc1cccnc1)C(=O)N[C@@H](CO)C(=O)N(C)[C@@H](Cc1ccc(O)cc1)C(=O)N[C@H](CCCCNC(=O)c1cccnc1)C(=O)N[C@@H](CC(C)C)C(=O)NCCCCN [Example 6, NAcD2Nal-D4ClPhe-D3Pal-Ser-NMeTyr-DLys(Nic)-Leu-NH--(CH2)4 NH2] (Ac-[d2Nal][dPhe(4-Cl)][d3Pal]S[NMeY][dK](Nicotinoyl)L-{NH(CH2)4NH2})",9.90
8,"CC(=O)N[C@H](Cc1ccc2ccccc2c1)C(=O)N[C@H](Cc1ccc(Cl)cc1)C(=O)N[C@H](Cc1cccnc1)C(=O)N[C@@H](CO)C(=O)N(C)[C@@H](Cc1ccc(O)cc1)C(=O)N[C@H](CCCCNC(=O)c1cccnc1)C(=O)N[C@@H](CC(C)C)C(=O)NCCCCCNC(C)C [Example 12, NAcD2Nal-D4ClPhe-D3Pal-Ser-NMeTyr-DLys(Nic)-1-Leu-NH--(CH2)5 NH-isopropyl] (Ac-[d2Nal][dPhe(4-Cl)][d3Pal]S[NMeY][dK](Nicotinoyl)L-X11)",10.45
9,"CC(=O)N[C@H](Cc1ccc2ccccc2c1)C(=O)N[C@H](Cc1ccc(Cl)cc1)C(=O)N[C@H](Cc1cccnc1)C(=O)N[C@@H](CO)C(=O)N(C)[C@@H](Cc1ccc(O)cc1)C(=O)N[C@H](CCCCNC(=O)c1cccnc1)C(=O)N[C@@H](CC(C)C)C(=O)NCCCCCNC(=N)N [Example 14, NAcD2Nal-D4ClPhe-D3Pal-Ser-NMeTyr-DLys(Nic)-Leu-NH--(CH2)5 NH(C=NH)NH2] (Ac-[d2Nal][dPhe(4-Cl)][d3Pal]S[NMeY][dK](Nicotinoyl)L-X12)",9.81
10,"CC(=O)N[C@H](Cc1ccc2ccccc2c1)C(=O)N[C@H](Cc1ccc(Cl)cc1)C(=O)N[C@H](Cc1cccnc1)C(=O)N[C@@H](CO)C(=O)N(C)[C@@H](Cc1ccc(O)cc1)C(=O)N[C@H](CCCCNC(=O)c1cccnc1)C(=O)N[C@@H](CC(C)C)C(=O)NCCCN [Example 15, NAcD2Nal-D4ClPhe-D3Pal-Ser-NMeTyr-DLys(Nic)-Leu-NH--(CH2)3 NH2] (Ac-[d2Nal][dPhe(4-Cl)][d3Pal]S[NMeY][dK](Nicotinoyl)L-{NH(CH2)3NH2})",8.70
11,"CC(=O)N[C@H](Cc1ccc2ccccc2c1)C(=O)N[C@H](Cc1ccc(Cl)cc1)C(=O)N[C@H](Cc1cccnc1)C(=O)N[C@@H](CO)C(=O)N(C)[C@@H](Cc1ccc(O)cc1)C(=O)N[C@H](CCCCNC(=O)c1cccnc1)C(=O)N[C@@H](CC(C)C)C(=O)NCCCN1CCCC1=O [Example 33, NAcD2Nal-D4ClPhe-D3Pal-Ser-NMeTyr-DLys(Nic)-Leu-NH--CH2 CH2 CH2 -(1-pyrrolidin-2-one)] (Ac-[d2Nal][dPhe(4-Cl)][d3Pal]S[NMeY][dK](Nicotinoyl)L-X3)",8.30
12,"CC(=O)N[C@H](Cc1ccc2ccccc2c1)C(=O)N[C@H](Cc1ccc(Cl)cc1)C(=O)N[C@H](Cc1cccnc1)C(=O)N[C@@H](CO)C(=O)N(C)[C@@H](Cc1ccc(O)cc1)C(=O)N[C@H](CCCCNC(=O)c1cccnc1)C(=O)N[C@@H](CC(C)C)C(=O)NCCCCCN [Example 13, NAcD2Nal-D4ClPhe-D3Pal-Ser-NMeTyr-DLys(Nic)-Leu-NH--(CH2)5 NH2] (Ac-[d2Nal][dPhe(4-Cl)][d3Pal]S[NMeY][dK](Nicotinoyl)L-{NH(CH2)5NH2})",9.30
13,"CC(=O)N[C@H](Cc1ccc2ccccc2c1)C(=O)N[C@H](Cc1ccc(Cl)cc1)C(=O)N[C@H](Cc1cccnc1)C(=O)N[C@@H](CO)C(=O)N(C)[C@@H](Cc1ccc(O)cc1)C(=O)N[C@H](CCCCNC(=O)c1cccnc1)C(=O)N[C@@H](CC(C)C)C(=O)NCCN [Example 2, NAcD2Nal-D4ClPhe-D3Pal-Ser-NMeTyr-DLys(Nic)-Leu-NH--(CH2)2 NH2] (Ac-[d2Nal][dPhe(4-Cl)][d3Pal]S[NMeY][dK](Nicotinoyl)L-Ethylenediamine)",9.58
14,"CC(=O)N[C@H](Cc1ccc2ccccc2c1)C(=O)N[C@H](Cc1ccc(Cl)cc1)C(=O)N[C@H](Cc1cccnc1)C(=O)N[C@@H](CO)C(=O)N(C)[C@@H](Cc1ccc(O)cc1)C(=O)N[C@H](CCCCNC(=O)c1cccnc1)C(=O)N[C@@H](CC(C)C)C(=O)NCCc1cccn1C [Example 29, NAcD2Nal-D4ClPhe-D3Pal-Ser-NMeTyr-DLys(Nic)-Leu-NH--CH2 --CH2 -[2-(1-methyl)pyrrole]] (Ac-[d2Nal][dPhe(4-Cl)][d3Pal]S[NMeY][dK](Nicotinoyl)L-X8)",8.30
15,"CC(=O)N[C@H](Cc1ccc2ccccc2c1)C(=O)N[C@H](Cc1ccc(Cl)cc1)C(=O)N[C@H](Cc1cccnc1)C(=O)N[C@@H](CO)C(=O)N(C)[C@@H](Cc1ccc(O)cc1)C(=O)N[C@H](CCCCNC(=O)c1cccnc1)C(=O)N[C@@H](CC(C)C)C(=O)NCCc1ccccc1 [Example 8, NAcD2Nal-D4ClPhe-D3Pal-Ser-NMeTyr-DLys(Nic)-Leu-NH--(CH2)2 -phenyl] (Ac-[d2Nal][dPhe(4-Cl)][d3Pal]S[NMeY][dK](Nicotinoyl)L-NHPhenethyl)",8.48
16,"CC(=O)N[C@H](Cc1ccc2ccccc2c1)C(=O)N[C@H](Cc1ccc(Cl)cc1)C(=O)N[C@H](Cc1cccnc1)C(=O)N[C@@H](CO)C(=O)N(C)[C@@H](Cc1ccc(O)cc1)C(=O)N[C@H](CCCCNC(=O)c1cccnc1)C(=O)N[C@@H](CC(C)C)C(=O)NCCN1CCOCC1 [Example 27, NAcD2Nal-D4ClPhe-D3Pal-Ser-NMeTyr-DLys(Nic)-Leu-NH--CH2 --CH2 -(1-norpholine)] (Ac-[d2Nal][dPhe(4-Cl)][d3Pal]S[NMeY][dK](Nicotinoyl)L-{NH(2-morpholinoethyl)})",8.30
